Assay results: patent US20130136772A1, “REGULATION OF IMMUNE RESPONSE BY COLOCYNTHIN AND/OR ITS DERIVATIVES” (priority 2010, published 2013)
Values joined by “and” are separate entries in the source; they are usually repeats but may differ in a detail not shown here. Equal values may be shown once.

How the values were obtained:
[1] = test system: Interleukin-1beta (IL-1β); test: Extracellular IL-1β in LPS stimulated murine neutrophils (ELISA, in vitro); assay type: cell-based; details: for Concentration of IL-1β produced Mean ± S.E.: LPS 10 ng/ml, 4 hr
Procedure: Neutrophils were separated from whole blood by Histopaque gradient method (Histopaque-No. 1077). Cell count was adjusted to approximately 10^5/[…]. Lipopolysaccharide, at the concentration of 10 ng/ml was used as stimulus in in-vitro studies. […] Extracellular IL-1β was estimated through ELISA (Table 2) [Weir, R. E., Morgan, A. R., Britton, W. J., Butlin, C. R., Dockrell, H. M., 1994. Development of a whole blood assay to measure T cell responses to leprosy: a new tool for immuno-epidemiological fields studies of leprosy immunity. J. Immunol. Methods. 176, 93; Hussain, R., Kaleem, A., Shahid, F., Dojki, M., Jamil, B., Mehmood, H., Dawood, G., Dockrell, H., 2002. Cytokine profiles using whole blood assays can discriminate between tuberculosis patients and healthy endemic controls in a BCG-vaccinated population. J. Immunol. Methods. 264, 95-108]

IL-1 beta = test: In vivo IL-1 beta estimation in serum of LPS challenged mice; design: species or system balb/c mice; details: 1, 2.5, 5 and 10 mg/kg oral for 6 days, LPS 1 mg/kg i.v., serum 90 min after LPS
Procedure: (§1) Invivo experiments were carried out using balb/c mice that were orally administrated with graded oral doses of AD-B-63B (1, 2.5, 5 and 10 mg/kg) for 6 days and challenged with LPS. Nitric oxide (NO) is an important mediator of diverse physiologic and pathologic processes, including many inflammatory diseases [Abramson S B, Amin A R, Clancy R M, Attur M, (2001). The role of nitric oxide in tissue destruction. Best Practice & Research Clinical Rheumatology; 15: 831-845]. Several lines of evidence implicate NO in the pathogenesis of inflammation. For example, rodents in animal models of arthritis generate abundant quantities of NO, as reflected in high levels of serum and urinary NO that develop in association with disease manifestations [Stefanovic-Racic M, Meyers K, Meschter C, Coffey J W, Hoffman R A, Evans C H, (1994). Monomethyl arginine, an inhibitor of nitric oxide synthase, suppresses the development of adjuvant arthritis in rats. Arthritis & Rheumatism; 37: 1062-1069.] [McCartney-Francis N, Allen J B, Mizel D E, Albina J E, Xie Q W, Nathan C F, Wahl S M, (1993). Suppression of arthritis by an inhibitor of nitric oxide synthase. Journal of Experimental Medicine; 178: 749-754.] [Weinberg J B, (1998). […] TNF-α, IL-1 beta and Nitric oxide production was evaluated by a commercial ELISA kits (R&D Systems) in serum from AD-B-63B treated mice, 90 min after LPS injection.

Nitric oxide (NO) = test: In vivo nitric oxide estimation in serum of LPS challenged mice; design: species or system balb/c mice; details: 1, 2.5, 5 and 10 mg/kg oral for 6 days, LPS 1 mg/kg i.v., serum 90 min after LPS
Procedure: as §1

CD4+ T cells = test: Lymphocyte immunophenotyping, CD4+ T cell population in SRBC immunised mice; assay type: in vivo, Swiss albino mice; details: graded doses; most significant suppression at 5 and 10 mg/kg vs sensitized control
Source text: Immunophenotyping focuses on lymphocyte populations involved in acquired immunity. Specific molecules present on the cell surface defines characteristics of lymphocytes such as state of activation or functional capabilities. Murine monoclonal antibodies conjugated to a fluorochrome and directed against co-receptors CD4 and CD8 were used in a multi parametric flowcytometric assay to quantify the lymphocyte subsets associated with the cell-mediated immune response.
Estimation of T cell surface markers: On day 0, mice were immunized by injecting 200 μl of 5×10^9 SRBC/ml intraperitonially. Drug administration was carried out for 6 days including the day of immunization. Same amount of SRBC was used to challenge the animals on day 7. After 24 h of challenge, blood was taken from retro-orbital plexus of animals for estimation of CD4^+ and CD8^+ T cells. 100 μl of whole blood was taken in each tube and FITC (fluorescein isothiocyanate) labelled CD4+ and PE (phycoerythrin) labelled CD8+ monoclonal antibodies were added and mixed gently. Tubes were incubated in the dark for 30 min. at room temperature. Subsequently, 2 ml of 1× FACS lysing solution was added at room temperature with gentle mixing. Samples were again incubated at room temperature for 10 min. […]

IL-2 = test: Intracellular IL-2 expression in SRBC immunised mice; assay type: in vivo, Swiss albino mice; details: graded doses; most significant suppression at 10 mg/kg p.o.
Procedure: (§2) Estimation of intracellular cytokines: The animals were immunized as mentioned above. After 6 days of drug administration, the animals were challenged on day 7. After 48 h of challenge, the blood was collected in the tubes containing EDTA (anti-coagulant) from retro-orbital plexes of animals to determine the effect of test material on the expression of intracellular IL-2 and IFN-γ (Th1) and IL-4 (Th2) cytokines. In this study, PE labeled IL-2 monoclonal antibody was used in one set and PE labeled IFN-γ and FITC labelled IL-4 monoclonal antibody was used in the other set of experimentation (FIG. 7, 8, 9).

IFN-γ = test: Intracellular IFN-γ expression in SRBC immunised mice; assay type: in vivo, Swiss albino mice; details: graded doses; inhibition observed at 5 and 10 mg/kg p.o.
Procedure: as §2

CC(=O)OC(C)(C)/C=C/C(=O)[C@](C)(O)[C@H]1[C@H](O)C[C@@]2(C)[C@@H]3CC=C4[C@@H](C=C(O[C@@H]5O[C@H](CO)[C@@H](O)[C@H](O)[C@H]5O)C(=O)C4(C)C)[C@]3(C)C(=O)C[C@]12C [AD-B-63B, 2-O-β-D-glucopyranosyl cucurbitacin E]
% activity IL-1β expression against LPS control (decrease) ([1]; 0.5 μg/ml): 10.25↓ %
Concentration of IL-1β produced Mean ± S.E. ([1]; 0.5 μg/ml): 120.91 ± 2.61 pg/mL
% activity IL-1β expression against LPS control (decrease) ([1]; 1 μg/ml): 18.66↓ %
Concentration of IL-1β produced Mean ± S.E. ([1]; 1 μg/ml): 109.58 ± 3.21 pg/mL
% activity IL-1β expression against LPS control (decrease) ([1]; 5.0 μg/ml): 30.90% and 30.90↓ %
Concentration of IL-1β produced Mean ± S.E. ([1]; 5.0 μg/ml): 93.08 ± 2.61 pg/mL
% activity IL-1β expression against LPS control (decrease) ([1]; 10.0 μg/ml): 34.96% and 34.96↓ %
Concentration of IL-1β produced Mean ± S.E. ([1]; 10.0 μg/ml): 87.61 ± 1.99 pg/mL
Concentration of IL-1β produced Mean ± S.E. ([1]; […]): 106.66 ± 2.44 pg/mL
Level of serum IL-1 beta (IL-1 beta): significant reduction
Level of serum NO (Nitric oxide (NO)): significant reduction
percentage of CD4+ T-cell population (CD4+ T cells): decrease
expression of intracellular IL-2 (IL-2): decrease
expression of IFN-γ (IFN-γ): decrease
